Tests used:
[1] = following oral administration; cited from earlier work
[2] = in vivo; cited from earlier work
[3] = clinical study of oral methscopolamine bromide as antispasmodic medication in colonoscopy; type: in vivo; details: 10 mg oral one hour before colonoscopy; 25 patients; control subjects 30%
Protocol: A clinical study was undertaken with oral methscopolamine bromide as an antispasmodic medication in colonoscopy. The study comprised of 40 non-randomized patients. Thirty patients were given oral methscopolamine bromide prior to the procedure. […] The dose was increased to 10 mg for the following 25 patients. For the purpose of the study, in terms of spasm control a “success” was defined as a colonoscopy where there was no significant spasm on insertion and no intravenous Buscopan® was required. A failure was defined as the requirement of intravenous Buscopan® (antispasmodic). […] The study had both male and female patients.

Which results are given for `C[N+]1(C)[C@@H]2C[C@@H](OC(=O)[C@H](CO)c3ccccc3)C[C@H]1[C@@H]1O[C@@H]12` [methscopolamine bromide]?
time until drug effects appear [1]: about one; ability to cross the blood-brain-barrier [2]: limited ability to cross the blood-brain-barrier; route of excretion [2]: excreted primarily in the urine and bile, or as unabsorbed drug in feces; patients with minimal or no spasm [3]: 64%
